Assay results from patent US20230339949A1, “HETEROCYCLIC SUBSTITUTED FUSED y-CARBOLINE DERIVATIVE, PREPARATION METHOD THEREFOR, INTERMEDIATE THEREOF AND USE THEREOF” (SHUJING BIOPHARMA CO., LTD, priority 2020, published 2023).
Read-outs that look alike come from different tables or passages of the source.

What was measured:
[1] = biological target: T1, D2 (CHO-K1/D2L/Gα15 cells) (Homo sapiens, UniProt P14416); test: Functional activity test on receptor (cryopreservation cells), calcium FLIPR, D2; assay type: cell-based; conditions: for IC50: cryopreserved CHO-K1/D2L/Gα15 cells, calcium fluorescence (FLIPR), antagonist mode vs dopamine EC80; for D2/5-HT2A ratio: ratio of D2 IC50 to 5-HT2A IC50, Test Example 1
T1 construct: expressed in transfected cells; host or cells: CHO-K1 (CHO-K1/D2L/Gα15, cryopreserved cells)
Procedure: Test Example 1: Functional Activity Test of Each Compound on Receptor (Cryopreservation Cells) [table] • (1) Cells was taken out from a liquid nitrogen tank, and the tube cap was loosened and inverted to make the liquid nitrogen flow out of the tube, then the cryopreservation tube was tightened. • (2) The cryopreservation tube was shaken rapidly at 37° C. […] • (1) Preparation of 250 mM probenecid solution: 1 mL experimental buffer was added into a tube containing 77 mg powder, and the powder was dissolved by vortex oscillation. • (2) Preparation of 2× fluorescent probe solution: A bottle of fluorescent probe dry powder was taken out to balance to room temperature, and 10 mL of experimental buffer solution and 200 μL of 250 mM probenecid solution were added thereto, and the bottle was scrolled and let stand for 5 minutes to ensure complete dissolution, and then the bottle was scrolled again. • a) Preparation of agonist compound plate (test of EC80): […] The compound to be tested was diluted 3-fold at 10 concentration points using experimental buffer in the compound plate (Greiner-781280), with an initial concentration of 3 μM and 30 μL per well; the antagonistic positive compounds (Spiperone and Ketanserin) were diluted 3-fold at 10 concentration points using experimental buffer, with an initial concentration of 1 μM and 30 μL per well. DMSO concentration was not higher than 3%. • (2) Cell preparation: Cells was taken out from the incubator, and 20 μL of prepared 2× fluorescent probe solution was added thereto, incubated at 37° C. for 50 minutes, then equilibrated at room temperature for 10 minutes. • a) The cell plate and agonist compound plate were put into the instrument, and the program of reading the plate was run. • b) 10 μL was transferred from the agonist compound plate to the cell plate, and fluorescence signal was read. • c) The EC80 of agonist was calculated using Screenworks software and 6×EC80 concentration was prepared for later use.

[2] = biological target: T2, 5-HT2A (CHO-K1/5HT2A cells) (Homo sapiens, UniProt P28223); test: Functional activity test on receptor (cryopreservation cells), calcium FLIPR, 5-HT2A; assay type: cell-based
T2 construct: expressed in transfected cells; host or cells: CHO-K1 (CHO-K1/5HT2A, cryopreserved cells)
Procedure: • (1) Cells was taken out from a liquid nitrogen tank, and the tube cap was loosened and inverted to make the liquid nitrogen flow out of the tube, then the cryopreservation tube was tightened. • (2) The cryopreservation tube was shaken rapidly at 37° C. […] 20 μL cell suspension was taken out and counted by cell counter. • (6) Dilution according to the specified conditions: 1×10^6 cells /mL, 20 μL cell suspension was added into each well of the cell plate, and finally the concentration of each well is 20,000 cells/well sequentially. • (7) The cell plate was cultured in an incubator with 5% CO2 and at 37° C. for 16-24 hours. […]
• a) The cell plate and agonist compound plate were put into the instrument, and the program of reading the plate was run. • b) 10 μL was transferred from the agonist compound plate to the cell plate, and fluorescence signal was read. • c) The EC80 of agonist was calculated using Screenworks software and 6×EC80 concentration was prepared for later use. […]

[3] = PK test on ICR mice; assay type: in vivo; conditions: mouse; male ICR mice, oral gavage, 5 mg/kg single dose, plasma
Procedure: Male ICR mice were administered by oral gavage administration, and blood concentration of the compound of the present disclosure in mice was measured, and PK parameters were calculated, and the pharmacokinetics of the compound of the present disclosure was evaluated.
Preparation of drug: The test compound was taken, and physiological saline was added, and ultrasonication was performed.
Administration route and dosage: administered by oral gavage, administration dosage: 5 mg/kg, administration volume: 10 mL/kg.
(§1) Administration frequency and duration: single dose.
ICR mice were stratified by body weight and then randomly grouped into 3 mice per group, and fasted overnight before the experiment. After oral gavage administration, at 0, 0.033, 0.083, 0.5, 1, 2, 4, 6 and 8 hours, […] of blood was collected from the mandibular vein or saphenous vein of mice and put into sample tubes containing the anticoagulant sodium heparin, and the sample tube was placed in wet ice, centrifuged at 4 000 r·min^−1 for 10 minutes, and the plasma was separated and cryopreserved in a refrigerator at −80° C. for testing.
The blood concentration-time data of the compound of the present disclosure measured by gavage administration were substituted into Winnonlin 8.2 program to calculate the main pharmacokinetic parameters. Tmax and Cmax were measured values, AUC0-t and AUC0-∞ values were calculated by trapezoidal method, and t1/2 was calculated by the concentration point at the end of elimination phase via semi-logarithmic drawing method.

[4] = test system: MK-801 induced hyperactivity behavior; test: MK-801 induced hyperactivity behavior in mice; assay type: in vivo, ICR mice; conditions: for ED50: Mus musculus, read-out: ED50 (half effective dose)
Procedure: The efficacy of the compounds of the present disclosure was evaluated by high activity model of mice induced by intraperitoneal injection of MK-801.
(§2) Experimental animals: ICR mice, male, 8 mice/group, Spelford (Beijing) Biotechnology Co., Ltd.
Preparation of drug: the test compounds were taken, and pure water was added, and ultrasonication was performed.
Administration route and method: gavage administration, 10 mL/kg (body weight).
as §1
Animals were stratified by body weight and then randomly divided into blank group, model group, and administration group, and detailed information of administration is shown in the following table.
Mice were stratified according to body weight and then randomly divided into model group, blank group and each administration group. One hour after the gavage administration of solvent or drug, 0.3 mg/kg MK-801 was injected intraperitoneally (the blank group was injected with the same volume of physiological saline), and then the mice were put into an independent activity box (a black polyethylene box with the specification of 29 cm×29 cm×30 cm) for video recording for 60 minutes, and video analysis was performed at the end of the recording to evaluate the activity of the mice.
(§3) The experimental data were expressed as x±SD, and SPSS statistical software was used to test the homogeneity of variance. If the variance was homogeneous, single factor analysis of variance was performed, and Dunnett t test is used for pairwise comparison. The ED50 was calculated by nonlinear fitting with GraphPad Primis5 software.

[5] = test system: DOI-induced head-shaking behavior; test: DOI-induced head-shaking behavior in mice; assay type: in vivo, ICR mice; conditions: Mus musculus; male ICR mice, single gavage dose 1 h before DOI 1 mg/kg i.p., head-shakes counted 0-20 min; read-out: ED50 (half effective dose)
Procedure: The efficacy of the compounds of the present disclosure was evaluated by the mice model of head-shaking behavior induced by intraperitoneal injection of (±) DOI (a hallucinogenic agent usually used to replicate anti-schizophrenic animal model).
as §2
Preparation of drug: the test compounds were taken, and solvent was added, and ultrasonication was performed.
Administration route and method: oral gavage administration, 10 mL/kg (body weight).
as §1
Animals were stratified by body weight and then randomly divided into blank group, model group, and administration groups, and detailed information of administration is shown in the following table.
Mice were stratified according to body weight and then randomly divided into model group, blank group and each administration group. One hour after the animals were gavage administration of the solvent or drugs, they were placed in a beaker (13 cm in diameter, 19 cm in height) with fresh padding, and the model drug DOI was injected intraperitoneally at a dose of 1 mg/kg. The times of head-shaking were recorded within 0-20 minutes after DOI was injected intraperitoneally.
Head-shaking behavior is defined as rapid rotational twitch of mouse's head or wet dog-like shaking, which should be different from normal hair grooming or inquiry behavior.
as §3

[6] = male ICR mice, single gavage dose 1 h before MK-801 0.3 mg/kg i.p., activity recorded 60 min

T1 sequence (P14416 whole entry): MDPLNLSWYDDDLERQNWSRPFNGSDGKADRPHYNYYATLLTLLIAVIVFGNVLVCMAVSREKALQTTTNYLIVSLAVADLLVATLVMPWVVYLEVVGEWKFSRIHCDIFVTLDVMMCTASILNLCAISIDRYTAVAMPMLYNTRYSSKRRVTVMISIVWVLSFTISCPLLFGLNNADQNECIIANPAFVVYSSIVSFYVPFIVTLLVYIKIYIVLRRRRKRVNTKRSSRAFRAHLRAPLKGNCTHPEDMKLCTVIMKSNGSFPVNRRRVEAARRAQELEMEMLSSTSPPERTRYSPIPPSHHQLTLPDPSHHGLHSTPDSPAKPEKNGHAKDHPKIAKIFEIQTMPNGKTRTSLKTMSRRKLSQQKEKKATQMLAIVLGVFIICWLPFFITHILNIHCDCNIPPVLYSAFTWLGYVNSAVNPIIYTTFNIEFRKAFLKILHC
T2 sequence (P28223 whole entry): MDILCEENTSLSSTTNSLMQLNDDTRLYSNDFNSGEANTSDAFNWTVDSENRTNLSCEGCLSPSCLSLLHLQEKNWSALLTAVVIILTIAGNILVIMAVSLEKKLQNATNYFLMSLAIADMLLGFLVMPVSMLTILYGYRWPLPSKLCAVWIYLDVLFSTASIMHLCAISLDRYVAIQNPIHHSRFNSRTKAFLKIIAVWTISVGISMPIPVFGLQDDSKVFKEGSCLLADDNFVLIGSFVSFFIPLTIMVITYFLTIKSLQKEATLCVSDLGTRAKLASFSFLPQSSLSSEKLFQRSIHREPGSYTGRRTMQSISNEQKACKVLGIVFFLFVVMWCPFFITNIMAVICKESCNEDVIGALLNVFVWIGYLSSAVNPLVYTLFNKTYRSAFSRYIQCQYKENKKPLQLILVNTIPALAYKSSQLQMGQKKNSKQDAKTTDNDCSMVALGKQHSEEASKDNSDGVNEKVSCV

| IC50 ([2]; cryopreserved CHO-K1/5HT2A cells, calcium fluorescence (FLIPR), antagonist mode vs serotonin EC80, read-out: 5-HT2A IC50) [nM] | AUC(0-inf) [3] [ng·h/mL] | AUC(0-t) [3] [ng·h/mL] | Cmax [3] [ng/mL] | Tmax [3] [h] | half-life [3] [h] | Structure (SMILES) | IC50 [1] [nM] | D2/5-HT2A ratio [1] | ED50 [4, 6] [mg/kg] | MED (lowest effective dose) [4, 6] [mg/kg] | IC50 [2] [nM] | ED50 [4] [mg/kg] | ED50 [5] [mg/kg] |
| --- | --- | --- | --- | --- | --- | --- | --- | --- | --- | --- | --- | --- | --- |
| 120 | 59.1 | 39.3 | 13.5 | 0.28 | 5 | CN1CCN2c3c(cccc31)[C@@H]1CN(CCCC(=O)c3ccc(F)cc3)CC[C@@H]12 [ITI-007, Lumateperone, reference compound] | 569 | 4.75 | 1.03 | 1 |  |  |  |
|  |  |  |  |  |  | CN1C(=O)CN2c3c1cccc3C1(C)CN(CCCC(=O)c3ccc(F)cc3)CCC21 (centres unmarked) [Embodiment 1, 8-(4-(4-fluorophenyl)-4-oxobutyl)-3,6b-dimethyl-6b,7,8,9,10,10a-hexahydro-1H-pyrido[3′,4′:4,5]pyrrolo[1,2,3-de]quinoxalin-2(3H)-one] | 662 | 13.09 |  | 0.1 | 50.5 | 0.11 |  |
|  | 190 | 155 | 109 | 0.17 | 3.14 | CN1C(=O)CN2c3c1cccc3[C@]1(C)CN(CCCC(=O)c3ccc(F)cc3)CC[C@H]21 [Embodiment 1-A, (6bR,10aS)-8-(4-(4-fluorophenyl)-4-oxobutyl)-3,6b-dimethyl-6b,7,8,9,10,10a-hexahydro-1H-pyrido[3′,4′:4,5]pyrrolo [1,2,3-de]quinoxalin-2(3H)-one] |  |  | 0.08 | 0.03 |  |  | 0.024 |
